ChEMBL document CHEMBL4420076, “Amylin and calcitonin receptor agonist” (2017)
pEC50, pIC50: −log10 of the molar value. Numbered stars: 1 amine (or outer) side, 2 acyl side, 3 side chain; on linkers, the order of the positions; unused ones are H or OH. Side chains are listed from the residue outwards. Peptide text beside a SMILES is read from it. * marks the point of attachment. C20 diacid = O=C(O)CCCCCCCCCCCCCCCCCCC(=O)*; γGlu = O=C(O)[C@H](CCC(=O)[*:2])N[*:1]

Assays:
[1] = target: T1, Amylin receptor AMY3; CALCR/RAMP3 (Homo sapiens, UniProt O60896+P30988); experiment: Agonist activity at human amylin receptor expressed in BHK570 cells co-expressing RAMP3 assessed as increase in intracellular cAMP concentration incubated for 3 hrs in absence of albumin by CRE luciferase reporter gene assay; format: functional, cell-based
T1 sequence (P30988 whole entry): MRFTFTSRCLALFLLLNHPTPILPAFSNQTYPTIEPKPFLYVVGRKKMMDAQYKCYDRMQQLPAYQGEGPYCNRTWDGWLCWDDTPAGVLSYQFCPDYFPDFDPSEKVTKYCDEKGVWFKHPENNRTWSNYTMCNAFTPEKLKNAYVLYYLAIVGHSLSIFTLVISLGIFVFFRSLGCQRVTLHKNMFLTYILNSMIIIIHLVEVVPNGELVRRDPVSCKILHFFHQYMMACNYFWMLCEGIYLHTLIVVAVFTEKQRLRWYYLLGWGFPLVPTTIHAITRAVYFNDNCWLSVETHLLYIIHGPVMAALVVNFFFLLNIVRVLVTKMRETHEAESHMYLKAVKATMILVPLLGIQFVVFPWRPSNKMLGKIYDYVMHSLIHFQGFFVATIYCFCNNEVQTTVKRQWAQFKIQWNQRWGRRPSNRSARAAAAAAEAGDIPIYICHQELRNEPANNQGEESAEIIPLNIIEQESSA
T1 sequence (O60896 whole entry): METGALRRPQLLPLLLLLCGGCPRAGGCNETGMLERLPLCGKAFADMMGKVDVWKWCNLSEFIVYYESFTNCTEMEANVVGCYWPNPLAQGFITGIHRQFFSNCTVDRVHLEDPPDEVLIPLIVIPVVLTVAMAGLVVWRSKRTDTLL

Calcitonin receptor [2] = target: T2, Calcitonin receptor (Homo sapiens, UniProt P30988); experiment: Agonist activity at human calcitonin receptor expressed in BHK570 cells assessed as increase in intracellular cAMP concentration incubated for 3 hrs in absence of albumin by CRE luciferase reporter gene assay; format: functional, cell-based
T2 sequence (P30988 whole entry): T1 sequence (P30988 whole entry)

[3] = target: T1, Amylin receptor AMY3; CALCR/RAMP3; experiment: Agonist activity at human amylin receptor expressed in BHK570 cells co-expressing RAMP3 assessed as increase in intracellular cAMP concentration incubated for 3 hrs in presence of 10% FBS by CRE luciferase reporter gene assay; format: functional, cell-based
Calcitonin receptor [4] = target: T2, Calcitonin receptor; experiment: Agonist activity at human calcitonin receptor expressed in BHK570 cells assessed as increase in intracellular cAMP concentration incubated for 3 hrs in presence of 10% FBS by CRE luciferase reporter gene assay; format: functional, cell-based
[5] = Solubility in 100 mM glycylglycine buffer at pH 3.0 incubated for 18 hrs by UPLC analysis; format: physicochemical
[6] = Solubility in 100 mM glycylglycine buffer at pH 4.0 incubated for 18 hrs by UPLC analysis; format: physicochemical
[7] = Solubility in 100 mM bistrispropane buffer at pH 6.0 incubated for 18 hrs by UPLC analysis; format: physicochemical
[8] = Solubility in 100 mM glycylglycine buffer at pH 5.0 incubated for 18 hrs by UPLC analysis; format: physicochemical
[9] = Solubility in 100 mM bistrispropane buffer at pH 6.5 incubated for 18 hrs by UPLC analysis; format: physicochemical
[10] = Solubility in 100 mM bistrispropane buffer at pH 7.0 incubated for 18 hrs by UPLC analysis; format: physicochemical
[11] = Solubility in 100 mM bistrispropane buffer at pH 7.5 incubated for 18 hrs by UPLC analysis; format: physicochemical
[12] = Solubility in 100 mM bistrispropane buffer at pH 8.0 incubated for 18 hrs by UPLC analysis; format: physicochemical
Calcitonin receptor [13] = target: T2, Calcitonin receptor; experiment: Displacement of [125I]-labeled human calcitonin from human calcitonin receptor expressed in BHK tkts13 cell membranes incubated for 1 hr by scintillation proximity assay
[14] = target: T3, Amylin receptor AMY3; CALCR/RAMP3 (Rattus norvegicus, UniProt P32214+Q9JJ73); experiment: Displacement of [125I]-labeled rat amylin from rat amylin receptor expressed in BHK tkts13 cell membranes co-expressing RAMP3 incubated for 120 mins by scintillation proximity assay
T3 sequence (P32214 whole entry): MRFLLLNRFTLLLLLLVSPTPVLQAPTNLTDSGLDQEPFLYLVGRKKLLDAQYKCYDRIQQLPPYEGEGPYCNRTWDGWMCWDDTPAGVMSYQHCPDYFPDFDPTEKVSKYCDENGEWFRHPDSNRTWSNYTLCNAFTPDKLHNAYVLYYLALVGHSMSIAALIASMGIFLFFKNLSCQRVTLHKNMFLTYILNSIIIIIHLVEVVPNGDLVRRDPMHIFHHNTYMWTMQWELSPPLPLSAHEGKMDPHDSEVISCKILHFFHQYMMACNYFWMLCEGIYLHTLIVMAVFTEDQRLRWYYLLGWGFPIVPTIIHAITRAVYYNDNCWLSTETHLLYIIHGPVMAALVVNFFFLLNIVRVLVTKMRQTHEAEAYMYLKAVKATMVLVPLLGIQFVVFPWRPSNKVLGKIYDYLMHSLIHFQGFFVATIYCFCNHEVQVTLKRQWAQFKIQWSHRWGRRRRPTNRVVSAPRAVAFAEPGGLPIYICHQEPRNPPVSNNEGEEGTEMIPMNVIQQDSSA
T3 sequence (Q9JJ73 whole entry): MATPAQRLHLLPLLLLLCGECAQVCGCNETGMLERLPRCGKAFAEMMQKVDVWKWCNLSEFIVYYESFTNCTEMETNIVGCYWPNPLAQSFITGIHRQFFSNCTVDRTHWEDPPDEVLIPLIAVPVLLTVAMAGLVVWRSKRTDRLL

[15] = target: T1, Amylin receptor AMY3; CALCR/RAMP3; experiment: Displacement of [125I]-labeled rat amylin from human amylin receptor expressed in BHK tkts13 whole cells co-expressing RAMP3 incubated for 60 mins by scintillation proximity assay; format: cell-based
Rattus norvegicus [16] = experiment: Reduction in food intake in Sprague-Dawley rat at 3 nmol/kg measured 0 to 24 hrs post dose relative to control; format: functional; design: scale not given: the % may be the effect or the level left
Rattus norvegicus [17] = experiment: Reduction in food intake in Sprague-Dawley rat at 3 nmol/kg measured 24 to 48 hrs post dose relative to control; format: functional; design: scale not given: the % may be the effect or the level left

Structure (SMILES) | pEC50 [1] | pEC50 (Calcitonin receptor [2]) | pEC50 [3] | pEC50 (Calcitonin receptor [4]) | solubility at 18 h [5] | solubility at 18 h [6] | solubility at 18 h [7] | solubility at 18 h [8] | solubility at 18 h [9] | solubility at 18 h [10] | solubility at 18 h [11] | solubility at 18 h [12] | pIC50 (Calcitonin receptor [13]) | pIC50 [14] | pIC50 [15] | Activity (Rattus norvegicus [16]) | Activity (Rattus norvegicus [17])
CC(=O)N[C@@H](C)C(=O)N[C@@H](CO)C(=O)N[C@@H](CCC(=O)O)C(=O)N[C@@H](CC(C)C)C(=O)N[C@@H](CO)C(=O)N[C@H](C(=O)N[C@@H](C)C(=O)N[C@@H](C)C(=O)N[C@@H](CC(C)C)C(=O)NCC(=O)N[C@@H](CCCNC(=N)N)C(=O)N[C@@H](CC(C)C)C(=O)N[C@@H](CO)C(=O)N[C@@H](C)C(=O)N[C@@H](CCC(=O)O)C(=O)N[C@@H](CC(C)C)C(=O)N[C@@H](Cc1cnc[nH]1)C(=O)N[C@@H](CCCCNC(=O)CC[C@H](NC(=O)CCCCCCCCCCCCCCCCCCC(=O)O)C(=O)O)C(=O)N[C@@H](CC(C)C)C(=O)N[C@@H](C)C(=O)N[C@H](C(=O)N[C@@H](CC(C)C)C(=O)N1CCC[C@H]1C(=O)N[C@@H](CCCNC(=N)N)C(=O)N[C@H](C(=O)N[C@@H](CCC(=O)O)C(=O)N[C@H](C(=O)NCC(=O)N[C@@H](CO)C(=O)NCC(=O)N[C@@H](CO)C(=O)N1CCC[C@H]1C(N)=O)[C@@H](C)O)[C@@H](C)O)[C@@H](C)O)[C@@H](C)O (Ac-ASELSTAALGRLSAELHK([γGlu-C20 diacid])LATLPRTETGSGSP-NH2) | 10.49 | 10.72 | 10.33 | 10.66 | ≥ 200 µM | ≥ 200 µM | ≥ 200 µM | ≥ 200 µM | ≥ 200 µM | ≥ 200 µM | ≥ 200 µM | ≥ 200 µM | 10.11 | 9.16 | – | – | –
CC(C)C[C@H](NC(=O)[C@H](CO)NC(=O)[C@H](C)NC(=O)[C@@H](NC(=O)[C@H](CO)NC(=O)[C@H](CC(C)C)NC(=O)[C@H](CCC(=O)O)NC(=O)[C@H](CO)NC(=O)[C@H](C)NC(=O)CC[C@H](NC(=O)CCCCCCCCCCCCCCCCCCC(=O)O)C(=O)O)[C@@H](C)O)C(=O)NCC(=O)N[C@@H](CCCNC(=N)N)C(=O)N[C@@H](CC(C)C)C(=O)N[C@@H](CO)C(=O)N[C@@H](C)C(=O)N[C@@H](CCC(=O)O)C(=O)N[C@@H](CC(C)C)C(=O)N[C@@H](Cc1cnc[nH]1)C(=O)N[C@@H](CCC(=O)O)C(=O)N[C@@H](CC(C)C)C(=O)N[C@@H](CO)C(=O)N[C@H](C(=O)N[C@@H](Cc1ccc(O)cc1)C(=O)N1CCC[C@H]1C(=O)N[C@@H](CCCNC(=N)N)C(=O)N[C@H](C(=O)N[C@@H](CCC(=O)O)C(=O)N[C@H](C(=O)NCC(=O)N[C@@H](CO)C(=O)NCC(=O)N[C@@H](CO)C(=O)N[C@@H](Cc1ccc(O)cc1)C(N)=O)[C@@H](C)O)[C@@H](C)O)[C@@H](C)O ({C20 diacid-γGlu}-ASELSTASLGRLSAELHELSTYPRTETGSGSY-NH2) | 10.77 | 10.80 | 9.84 | 9.97 | ≥ 200 µM | – | – | – | – | ≥ 200 µM | ≥ 200 µM | ≥ 200 µM | 10.00 | 10.34 | 8.50 | – | –
CC(C)C[C@H](NC(=O)CNC(=O)[C@H](CO)NC(=O)[C@H](C)NC(=O)CC[C@H](NC(=O)CCCCCCCCCCCCCCCCCCC(=O)O)C(=O)O)C(=O)N[C@@H](CO)C(=O)N[C@H](C(=O)N[C@@H](C)C(=O)N[C@H](C(=O)N[C@@H](CC(C)C)C(=O)NCC(=O)N[C@@H](CCCCN)C(=O)N[C@@H](CC(C)C)C(=O)N[C@@H](CO)C(=O)N[C@@H](CCC(N)=O)C(=O)N[C@@H](CCC(=O)O)C(=O)N[C@@H](CC(C)C)C(=O)N[C@@H](Cc1cnc[nH]1)C(=O)N[C@@H](CCC(=O)O)C(=O)N[C@@H](CC(C)C)C(=O)N[C@@H](CCC(N)=O)C(=O)N[C@H](C(=O)N[C@@H](Cc1ccc(O)cc1)C(=O)N1CCC[C@H]1C(=O)N1CCC[C@H]1C(=O)N[C@H](C(=O)N[C@@H](CCC(=O)O)C(=O)N[C@H](C(=O)NCC(=O)N[C@@H](CO)C(=O)NCC(=O)N[C@H](C(=O)N[C@@H](Cc1ccc(O)cc1)C(N)=O)[C@@H](C)O)[C@@H](C)O)[C@@H](C)O)[C@@H](C)O)C(C)C)[C@@H](C)O ({C20 diacid-γGlu}-ASGLSTAVLGKLSQELHELQTYPPTETGSGTY-NH2) | 10.74 | 10.82 | 9.81 | 10.21 | ≥ 200 µM | – | ≥ 200 µM | ≥ 200 µM | ≥ 200 µM | ≥ 200 µM | ≥ 200 µM | ≥ 200 µM | 9.19 | 9.41 | – | 8% | 9%
CC(C)C[C@H](NC(=O)[C@H](CCCNC(=N)N)NC(=O)CNC(=O)[C@H](CC(C)C)NC(=O)[C@@H](NC(=O)[C@H](C)NC(=O)[C@@H](NC(=O)[C@H](CO)NC(=O)[C@H](CC(C)C)NC(=O)[C@H](CCC(N)=O)NC(=O)[C@H](CO)NC(=O)[C@H](C)NC(=O)CC[C@H](NC(=O)CCCCCCCCCCCCCCCCCCC(=O)O)C(=O)O)[C@@H](C)O)C(C)C)C(=O)N[C@@H](CO)C(=O)N[C@@H](CCC(N)=O)C(=O)N[C@@H](CCCNC(=N)N)C(=O)N[C@@H](CC(C)C)C(=O)N[C@@H](Cc1cnc[nH]1)C(=O)N[C@@H](CCCNC(=N)N)C(=O)N[C@@H](CC(C)C)C(=O)N[C@@H](CCC(N)=O)C(=O)N[C@H](C(=O)N[C@@H](Cc1ccc(O)cc1)C(=O)N1CCC[C@H]1C(=O)N[C@@H](CCCNC(=N)N)C(=O)N[C@H](C(=O)N[C@@H](CCC(N)=O)C(=O)N[C@H](C(=O)NCC(=O)N[C@@H](CO)C(=O)N[C@@H](CCC(N)=O)C(=O)N[C@H](C(=O)N[C@@H](Cc1ccc(O)cc1)C(N)=O)[C@@H](C)O)[C@@H](C)O)[C@@H](C)O)[C@@H](C)O ({C20 diacid-γGlu}-ASQLSTAVLGRLSQRLHRLQTYPRTQTGSQTY-NH2) | 10.80 | 10.82 | 10.43 | 10.30 | – | – | – | – | – | – | – | – | 9.88 | 8.94 | 8.43 | – | –
